Reference: patent US9517988B2 (Sichuan Haisco Pharmaceutical Co., Ltd., priority 2013, dated 2016)
Where a name gives a salt, the structure may show the parent alone.

Columns and labels:
[1] = Righting reflex experiment on mice; settings: both, ICR, mouse, in vivo, iv
Description: (§1) LD5 (5% lethal dose): dose required to cause 5% of mice to die in a test.
(§2) If a normal animal was able to immediately turn its body to normal upright position after being pushed over or made lying on its back, such a reflex was determined as the righting reflex. Otherwise, loss of the righting reflex and the time of loss were recorded, and a reflex recovery time was recorded when the animal restored the righting reflex. The period from finishing of drug administration until loss of the righting reflex was recorded as the anesthesia induction time, and the period from loss of the righting reflex until recovery of the righting reflex was recorded as the anesthesia maintenance time.
(§3) TI (therapeutic index, i.e. LD50/ED50), SI (safety index, i.e. LD5/ED95).
(§4) MTD (maximum tolerated dose): the maximum dose able to cause 100% to loss the righting index without death.
(§5) Indicators such as median effective dose (ED50), median lethal dose (LD50), therapeutic index (TI, i.e. LD50/ED50), safety index (SI, i.e. LD5/ED95), anesthesia induction time, anesthesia maintenance time, and maximum tolerated dose (MTD) were used to evaluate the effect and safety of anesthesia. […] After adapting to the laboratory environment, laboratory animals were fasted for 12 hours. On the next day, administration was carried out at 10 mg/kg body weight. Upon intravenous injection, the time of loss of the righting reflex was recorded. The period from finishing of drug administration until loss of the righting reflex was recorded as the anesthesia induction time, and the period from loss of the righting reflex until recovery of the righting reflex was recorded as the anesthesia maintenance time. The anesthesia induction time and the anesthesia maintenance time were used to indicate how strong an anesthetic effect was. Meanwhile, the dose required to cause a 7-min anesthesia (HD7) was measured and used to evaluate relative efficacy.

ICR mice [2] = assay: Righting reflex experiment on mice
Description: as §1, §2, §3, §4, §5

[3] = Righting reflex experiment on mice with prodrugs; assay type: in vivo; settings: ICR, mouse, in vivo, mice; for MTD: intravenous, prodrugs; for LD50: intravenous injection, prodrugs in physiological saline
Description: (§6) After adapting to the laboratory environment, the SPF-grade ICR mice were fasted for 12 hours.

ICR mice [4] = assay: Righting reflex experiment on mice with prodrugs; assay type: in vivo; settings: for ED50: Mus musculus, prodrugs formulated with physiological saline, read-out: ED50; for ED50 / Anesthesia induction time / Anesthesia maintenance time: mice, intravenous injection; for Anesthesia induction time / Anesthesia maintenance time / SI / TI: prodrugs; for SI: safety index, LD5/ED95, mice; for TI: therapeutic index, LD50/ED50, mice
Description: as §6

SMILES	LD50 [1]	ED50 (ICR mice [2]; Mus musculus, iv)	Anesthesia induction time (ICR mice [2]; mice, intravenous injection, end of administration until loss of righting reflex)	Anesthesia maintenance time (ICR mice [2]; mice, intravenous injection, loss until recovery of righting reflex)	MTD (ICR mice [2]; mice, maximum dose causing 100% loss of righting reflex without death)	SI (ICR mice [2]; safety index, LD5/ED95, mice)	TI (ICR mice [2]; therapeutic index, LD50/ED50, mice)	MTD ([3]; both sexes)	LD50 ([3]; both sexes)	ED50 (ICR mice [4])	Anesthesia induction time (ICR mice [4])	Anesthesia maintenance time (ICR mice [4])	SI (ICR mice [4])	TI (ICR mice [4])	MTD ([3]; both)	LD50 ([3]; both)
CC(C)c1cccc([C@H](C)C2CCC2)c1O [Compound 14, 2-[(1R)-1-cyclobutylethyl]-6-isopropyl-phenol]	38.2 mg/kg	6.6 mg/kg	<15.0 s	2235.6 s	35.0 mg/kg	3.7	5.8									
C[C@H](c1cccc([C@H](C)C2CC2)c1OCOP(=O)(O)O)C1CC1 [Compound 76, sodium (2-((R)-1-cyclopropylethyl)-6-((S)-1-cyclopropylethyl)phenoxy)methyl phosphate]								80 mg/kg	143 mg/kg	35.8 mg/kg	111.8 s	1992.8 s	2.5	4.0		
CC(C)c1cccc([C@H](C)C2CC2)c1OCOC(=O)c1cccnc1 [Compound 51, [2-[(1R)-1-cyclopropylethyl]-6-isopropyl-phenoxy]methylpyridine-3-carboxylate]								40 mg/kg	80 mg/kg	28.3 mg/kg	159.0 s	1159.9 s	1.2	2.8		
CC(C)c1cccc([C@H](C)C2CCC2)c1OCOP(=O)([O-])[O-].[Na+].[Na+] [Compound 74]										48.3 mg/kg	96.5 s	2378.3 s	2.5	4.0	120 mg/kg	192 mg/kg
CC[C@H](C)c1cccc([C@H](C)C2CC2)c1OCOP(=O)([O-])[O-].[Na+].[Na+] [Compound 79]										24.3 mg/kg	72.5 s	2252.1 s	2.1	3.8	60 mg/kg	91.8 mg/kg
C[C@@H](c1cccc([C@H](C)C2CC2)c1OCOP(=O)(O)O)C1CC1 [Compound 75, sodium (2,6-bis((R)-1-cyclopropylethyl)phenoxy)methyl phosphate]								30 mg/kg	42.4 mg/kg	11.7 mg/kg	129.2 s	2070.4 s	2.3	3.6		
CC(C)C[C@H](N)C(=O)OCOc1c(C(C)C)cccc1[C@H](C)C1CC1 [Compound 60, [2-[(1R)-1-cyclopropylethyl]-6-isopropyl-phenoxy]methyl(2S)-2-amino-4-methyl-pentanoate trifluoroacetate]								50 mg/kg	79.6 mg/kg	13.8 mg/kg	6.0 s	1473.0 s	3.1	5.8		
C[C@H](c1cccc([C@@H](C)C2CC2)c1OCOP(=O)(O)O)C1CC1 [Compound 77, sodium (2,6-bis((S)-1-cyclopropylethyl)phenoxy)methyl phosphate]								160 mg/kg	274 mg/kg	94.7 mg/kg	175.4 s	1859.1 s	1.7	2.9		
CC(C)c1cccc([C@@H](C)C2CC2)c1OCOP(=O)([O-])[O-].[Na+].[Na+] [Compound 65]								200 mg/kg	370 mg/kg	82.7 mg/kg	82.5 s	3278.0 s	2.9	4.5		
CC(C)c1cccc([C@H](C)C2CC2)c1OCOC(=O)C(NC(=O)OC(C)(C)C)C(C)C (stereo in doubt) [Compound 57, [2-[(1R)-1-cyclopropylethyl]-6-isopropyl-phenoxy]methyl(2R)-2-(tertbutoxycarbonylamino)-3-methyl-butanoate]								80 mg/kg	120 mg/kg	36.7 mg/kg	135.8 s	1931.2 s	1.3	3.3		
